How the values were obtained:
Assay in all cases: Post-emergence application in field trials, herbicidal activity (damage scale 0 to 100%)
Type in all cases: in vivo
[1] = tested on: Setaria verticillata (SETVE); details: 7 DAT, stage 21-23, height 8-16 cm
Experimental: (§1) In the examples below, using the method of S. R. Colby (1967) “Calculating synergistic and antagonistic responses of herbicide combinations”, Weeds 15, p. 22ff., the value E, which is expected if the activity of the individual active compounds is only additive, was calculated:
(§2) [formula] • wherein • X=percent activity using active herbicide A at an application rate a; • Y=percent activity using active herbicide B (e.g. pyroxasulfone) at an application rate b; • E=expected activity (in %) by A+B at application rates a+b.
(§3) For 3-component mixtures the synergistic response was calculated as described in: Ferry, Nancy; Stanley, Bruce H.; and Armel, Gregory (2005). “DESIGN AND ANALYSIS OF BIOLOGICAL ASSAYS OF MIXTURES,” Conference on Applied Statistics in Agriculture. https://doi.org/10.4148/2475-7772.1133. According to this publication, the Colby calculation can be generalized to a third mixing partner, Z, employing the following formula: […]
(§4) If the value found experimentally is higher than the value E calculated according to Colby, a synergistic effect is present.
(§5) On field test sites, natural weed infestation or seeded weeds were treated post-emergence of the weeds.
(§6) In the field trials, the weeds were treated as indicated below.
(§7) In the following experiments, the herbicidal activity for the individual herbicidal compositions (solo and mixture applications) was assessed at the indicated days after treatment (DAT). The assessments for the damage on undesired weeds caused by the composition was carried out using a scale from 0 to 100%, compared to the untreated control plants. Here, 0 means no damage and 100 means complete destruction of the plants.
(§8) Herbicide A-1 (342 g/l) and pyroxasulfone (500 g/l) were, together with addition of 0.25 v/v % MSO (methylated seed oil) as adjuvant, formulated in 200 l/ha water as distribution medium and sprayed with commercial flat fan nozzles.
(§9) Herbicide A-1 (342 g/l), pyroxasulfone (500 g/l) and trifludimoxazin (500 g/l) were, together with addition of 0.25 v/v % MSO (methylated seed oil) as adjuvant, formulated in 200 l/ha water as distribution medium and sprayed with commercial flat fan nozzles.
(§10) Herbicide A-1 (342 g/I), pyroxasulfone (500 g/l) and glyphosate-isopropylammonium (356 g/l) were, together with addition of 0.25 v/v % MSO (methylated seed oil) as adjuvant, formulated in 200 l/ha water as distribution medium and sprayed with commercial flat fan nozzles.
(§11) Herbicide A-1 (342 g/l), pyroxasulfone (500 g/l) and glufosinate-P-ammonium (211 g/l) were, together with addition of 0.25 v/v % MSO (methylated seed oil) as adjuvant, formulated in 200 l/ha water as distribution medium and sprayed with commercial flat fan nozzles.
(§12) Herbicide A-1 (342 g/l), pyroxasulfone (500 g/l) and 2,4-D-choline (456 g/l) were, together with addition of 0.25 v/v % MSO (methylated seed oil) as adjuvant, formulated in 200 l/ha water as distribution medium and sprayed with commercial flat fan nozzles.

[2] = tested on: Amaranthus retroflexus (AMARE); details: stage 31-49, height 10-12 cm
Experimental: as §1, §2, §3, §4, §5, §6, §7, §8, §9, §10, §11, §12

Glycine max (GLXMA) = details: 7 DAT; stage 12-13, height 7-11 cm; g ai/ha A-1 12.5, B 70, C-4 12.5
Experimental: as §1, §2, §3, §4, §5, §6, §7, §8, §9, §10, §11, §12

Zea mays (ZEAMX) = details: 7 DAT; stage 15-16, height 27-33 cm; g ai/ha A-1 18, B 90, C-4 12.5
Experimental: as §1, §2, §3, §4, §5, §6, §7, §8, §9, §10, §11, §12

[3] = tested on: Digitaria sanguinalis (DIGSA); details: stage 22, height 10-15 cm
Experimental: as §1, §2, §3, §4, §5, §6, §7, §8, §9, §10, §11, §12

[4] = 7 DAT, g ai/ha A-1 12.5, B 70, C-4 12.5
[5] = 42 DAT, g ai/ha A-1 12.5, B 70, C-4 12.5
[6] = 42 DAT, g ai/ha A-1 18, B 70, C-4 12.5
[7] = 42 DAT, g ai/ha A-1 18, B 90, C-4 12.5

| SMILES | % Herbicidal activity ([1]; g ai/ha A-1 18, B 90, C-4 12.5) [%] | % Herbicidal activity [2, 4] [%] | % Herbicidal activity [2, 5] [%] | % Herbicidal activity [2, 6] [%] | % Herbicidal activity [2, 7] [%] | % Herbicidal activity (Glycine max (GLXMA)) [%] | % Herbicidal activity (Zea mays (ZEAMX)) [%] | % Herbicidal activity [3, 4] [%] | % Herbicidal activity ([3]; 7 DAT, g ai/ha A-1 18, B 70, C-4 12.5) [%] | % Herbicidal activity ([3]; 7 DAT, g ai/ha A-1 18, B 90, C-4 12.5) [%] | % Herbicidal activity ([3]; 21 DAT, g ai/ha A-1 12.5, B 70, C-4 12.5) [%] | % Herbicidal activity ([3]; 21 DAT, g ai/ha A-1 18, B 70, C-4 12.5) [%] | % Herbicidal activity ([3]; 21 DAT, g ai/ha A-1 18, B 90, C-4 12.5) [%] | % Herbicidal activity [3, 5] [%] | % Herbicidal activity [3, 6] [%] | % Herbicidal activity [3, 7] [%] | % Herbicidal activity ([1]; g ai/ha A-1 18, B 70, C-8 840) [%] | % Herbicidal activity ([1]; g ai/ha A-1 18, B 90, C-8 840) [%] | % Herbicidal activity ([3]; 7 DAT, g ai/ha A-1 18, B 70, C-8 840) [%] | % Herbicidal activity ([3]; 7 DAT, g ai/ha A-1 18, B 90, C-8 840) [%] |
| --- | --- | --- | --- | --- | --- | --- | --- | --- | --- | --- | --- | --- | --- | --- | --- | --- | --- | --- | --- | --- |
| C#CCN1C(=O)C(F)(F)Oc2cc(F)c(-n3c(=O)n(C)c(=S)n(C)c3=O)cc21 [C-4, trifludimoxazin] | 40 | 80 | 80 | 80 | 80 | 75 | 40 | 30 | 30 | 30 | 30 | 30 | 30 | 20 | 20 | 20 |  |  |  |  |
| CC(C)N.O=C(O)CNCP(=O)(O)O [C-8, glyphosate-isopropylammonium] |  |  |  |  |  |  |  |  |  |  |  |  |  |  |  |  | 75 | 75 | 85 | 85 |

Reference: patent US12690589B2, “Herbicidal compositions comprising pyroxasulfone” (BASF SE, priority 2024, dated 2026)
